Three compounds from patent US9394288B2, “Compositions and methods for the treatment of asthma and allergy” (CELLIX BIO PRIVATE LIMITED, priority 2012, dated 2016) can be followed below.

The assay relates to TNB/ethanol colitis. The experiment in a line: Intracolonic administration in rat model of chronic colitis (TNB/ethanol): macroscopic colonic damage. The assay is classed as in vivo, Sprague-Dawley rats. The settings on record: for macroscopic damage score: after four weeks of treatment, daily enema 50 mg/kg (Formula I (1-1): zileuton equivalent), p=0.026. On the procedure: Female virgin Sprague-Dawley rats weighing 200-250 g were used in this study. The animals were maintained in a restricted access room with controlled temperature (23° C.) and light/dark cycle (16 h:8 h). The rats were housed in individual isolated rack mounted wire cages.
TNB/ethanol colitis was induced in 90 rats. Animals were thereafter randomised into four therapeutic groups to receive daily, from day 1 (24 hours after induction of colitis):
Group A (n=30)−0.25 ml of vehicle solution enema (1-5% carboxymethylcellulose in saline serum) (placebo group).
Group B (n=30)−0.25 ml of the vehicle solution enema added with 50 mg/kg of body weight of 5-ASA.
Group C (n=30)−0-25 ml of the vehicle solution enema added with 50 mg/kg of body weight of zileuton.
Group D (n=30)−0-25 ml of the vehicle solution enema added with 50 mg/kg of body weight of Formula I (1-1) equivalent of zileuton.
In addition, sham colitis was induced, by intrarectal administration of 0-25 ml of 0.9°/0 saline, in 10 rats (control group). At day 1 and 3, and at weeks 1, 2, and 4, 10 rats from groups A, B, C and D were randomly selected for the assessment of eicosanoid release in the lumen of the colon by intracolonic dialysis. Rats were anaesthetised with 100 mg of intraperitoneal thiopental and intracolonic dialysis was performed using hydrated Visking seamless cellulose tubing (8/32, 6-3 mm diameter, 7 cm long; Medicell International, London) attached by a 10 cm polyurethane cannula to an external syringe. After inserting the entire cannula into the distal colon, the dialysis bag was filled with 1 ml of dialysis solution, consisting of 0.3°/o bovine serum albumin in a solution of 120 mmol/1 NaCl and 30 mmol/1 KHCO3 adjusted to pH 7.90. One hour later, the fluid was withdrawn and immediately stored at −30 C. The volume of the dialysate recovered at the end of the one hour period was higher than 90%. In the control group (n=10), an intracolonic dialysis was performed in the same way 24 hours after the sham colitis induction. The day after the dialysis was performed at weeks 1, 2, and 4, the same animals were given a distal colectomy under total anaesthesia with 100 mg of intraperitoneal thiopental, to assess colonic inflammation macroscopically and histologically. The excised colon was opened longitudinally, rinsed with normal saline, pinned out on a wax block, and assigned a code number. Mucosal damage was assessed macroscopically as described later. Afterwards, three tissue specimens (2×10 mm) were obtained from the colon. When no severely visible inflammation was present, the specimens were taken from the regions 1 cm, 3 cm, and 8 cm proximal to the anus. When visible lesions were present, the specimens were taken from the affected regions. Tissue samples were fixed in formaldehyde and routinely processed. […]

For `Nc1ccc(O)c(C(=O)O)c1` [5-ASA], the macroscopic damage score is on record as 7.3 (0.7).
Still for that read-out and setting: the figure for `CC(c1cc2ccccc2s1)N(O)C(N)=O` (stereo not shown) [zileuton] is 5.6 (0.7).
For the compound `CC/C=C\C/C=C\C/C=C\C/C=C\C/C=C\CCCC(=O)NC(=O)N(O)C(C)c1cc2ccccc2s1` (stereo not shown) [Formula I (1-1)], the macroscopic damage score was 4.36 (0.6). Besides, the “all parameters measured by the score, mainly the development of strictures” value (at four weeks, compared with 5-ASA, zileuton and placebo) is recorded as “improved”.
